In patent US20260374766A1, “METHODS FOR TREATING CANCER” (Antares Therapeutics, Inc., priority 2022, published 2026):
Read-outs that look alike come from different tables or passages of the source.

Tests used:
[1] = target: T1, p53 Y220C mutant protein (amino acid residues 94-293) (Homo sapiens, UniProt P04637, Y220C); assay: Surface Plasmon Resonance (SPR) assay, Kd_kinetic; type: binding; conditions: read-out: SPR P53 Y220C KD kinetic
T1 construct: p53 Y220C mutant protein (amino acid residues 94-293)
T1 sequence (P04637 94-293, stated change not applied): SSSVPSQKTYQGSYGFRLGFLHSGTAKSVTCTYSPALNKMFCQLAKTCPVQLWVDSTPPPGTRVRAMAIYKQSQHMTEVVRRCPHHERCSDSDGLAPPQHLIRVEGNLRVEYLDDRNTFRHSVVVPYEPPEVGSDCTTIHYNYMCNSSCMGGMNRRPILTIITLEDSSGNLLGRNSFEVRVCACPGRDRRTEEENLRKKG
How it was run: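 Binding measured by SPR on a Biacore 8K in running buffer of 50 mM Tris pH 7.5, 100 mM NaCl, 1 mM DTT, 0.01% Brij35, 0.05% Tween-20, 1% DMSO.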

p53 Y220C = p53 Y220C (Homo sapiens, UniProt P04637, Y220C); assay: Luciferase Reporter Assay (Luc), p53 response element, NClH1299 cells with inducible p53 Y220C; type: cell-based; conditions: 6 hour; for AC50: read-out: Luc P53 Y220C AC50
How it was run: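 Luciferase activity is measured directly after One-Glo addition and a 5-minute room-temperature shake. Before that, cells plated at 5,000 per well receive doxycycline at 0.5 ug/mL for 24 hours, followed by compound for 6 hours.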

NUGC3 p53 Y220C = assay: Cell Proliferation Assay (CellTiter-Glo, CTG), NUGC3 p53 Y220C; type: cell-based; conditions: Homo sapiens, NUGC-3, 120 h, NUGC3 cells, 5 days
How it was run: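 NClH1299 lines stably transduced with Tet-inducible p53 Y220C or R273H, plus NUGC3, were treated with compound for 5 days at 250-500 cells/well. IC50 derived from CellTiter-Glo luminescent signal after 10 min room-temperature incubation.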

H1299 p53 Y220C = assay: Cell Proliferation Assay (CellTiter-Glo, CTG), H1299 p53 Y220C (NClH1299-inducible p53 Y220C); type: cell-based; conditions: Homo sapiens, NCI-H1299, 120 h, NClH1299-inducible p53 Y220C cells, 5 days
How it was run: (§1)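 Cells seeded at 250-500 per well and exposed to compound for 5 days. Viability read by CellTiter-Glo luminescence after 10 min at room temperature; IC50 calculated. H1299 lines carry Tet-One inducible p53 mutant constructs introduced by lentiviral transduction.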

H1299 p53 R273H = assay: Cell Proliferation Assay (CellTiter-Glo, CTG), H1299 p53 R273H (NClH1299-inducible p53 R273H); type: cell-based; conditions: Homo sapiens, NCI-H1299, 120 h, NClH1299-inducible p53 R273H cells, 5 days
How it was run: as §1

[2] = luciferase reporter, NClH1299 inducible p53 Y220C
[3] = NClH1299 cells with inducible p53 Y220C
[4] = NClH1299 cells with inducible p53 Y220C, 10 uM tool compound as positive control

| SMILES | Kd ([1]; SPR, p53 Y220C) [nM] | AC50 (p53 Y220C; [2]) [nM] | Emax (p53 Y220C; [2]) [%] | IC50 (NUGC3 p53 Y220C; CellTiter-Glo) [nM] | IC50 (H1299 p53 Y220C; CellTiter-Glo) [nM] | IC50 (H1299 p53 R273H; CellTiter-Glo) [nM] | AC50 (p53 Y220C; [3]) [nM] | Emax (p53 Y220C; [4]) [%] | IC50 (NUGC3 p53 Y220C) [nM] | IC50 (H1299 p53 Y220C) [nM] | IC50 (H1299 p53 R273H) [nM] | Kd [1] [nM] |
| --- | --- | --- | --- | --- | --- | --- | --- | --- | --- | --- | --- | --- |
| CNC(=O)c1cnc(C)c(NCC#Cc2nc3c(N[C@@H]4CCN(C)C[C@@H]4F)cccn3c2SC(F)(F)F)c1 [Example 274] | < 10 | < 750 | > 90 | < 750 | < 750 | ≥ 10000 | – | – | – | – | – | – |
| CNC(=O)c1ccc(NCC#Cc2nc3c(N[C@@H]4CCOC[C@@H]4F)cccn3c2SC(F)(F)F)c(OCCN(C)C)c1 [Example 226] | < 10 | 750 to 1500 | 70 to 80 | 750 to 1500 | 750 to 1500 | 5000 to 8000 | – | – | – | – | – | – |
| COc1ccc(C(=O)N[C@@H](C)[C@H](C)O)cc1NCC#Cc1cc2c(N[C@@H]3CCN(C)C[C@@H]3F)cccn2c1SC(F)(F)F [Example 456] | < 10 | – | – | – | – | – | < 750 | > 90 | < 750 | < 750 | ≥ 10000 | – |
| COc1cc(S(C)(=O)=O)ccc1NCC#Cc1cc2c(N[C@@H]3CCNC[C@@H]3F)cccn2c1SC(F)(F)F [Example 370] | < 10 | < 750 | > 90 | < 750 | < 750 | 5000 to 8000 | – | – | – | – | – | – |
| CNC(=O)c1cc(NCC#Cc2cc3c(N[C@@H]4CCN(C)C[C@@H]4F)cccn3c2SC(F)(F)F)c2cncn2c1 [Example 479] | < 10 | – | – | – | – | – | < 750 | > 90 | < 750 | < 750 | ≥ 10000 | – |
| CN1CCO[C@H](CNC(=O)c2ccc(NCC#Cc3cc4c(N[C@@H]5CCN(C)C[C@@H]5F)cccn4c3SC(F)(F)F)cc2)C1 [Example 388] | < 10 | < 750 | 80 to 90 | < 750 | < 750 | 5000 to 8000 | – | – | – | – | – | – |
| CNC(=O)c1ccc(NCC#Cc2nc3c(N[C@@H]4CCOC[C@@H]4F)cccn3c2SC(F)(F)F)c(OC2CN(C)C2)c1 [Example 275, 4-{[3-(8-{[(3R,4R)-3-fluorooxan-4-yl]amino}-3-[(trifluoromethyl)sulfanyl]imidazo[1,2-a]pyridin-2-yl)prop-2-yn-1-yl]amino}-N-methyl-3-[(1-methylazetidin-3-yl)oxy]benzamide] | < 10 | < 750 | 80 to 90 | < 750 | < 750 | 5000 to 8000 | – | – | – | – | – | – |
| CN1CC[C@H](Nc2cccn3c(SC(F)(F)F)c(C#CCNc4ccc(P(C)(C)=O)c5scnc45)cc23)[C@H](F)C1 [Example 389, 7-(dimethylphosphoryl)-N-[3-(8-{[(3R,4S)-3-fluoro-1-methylpiperidin-4-yl]amino}-3-[(trifluoromethyl)sulfanyl]indolizin-2-yl)prop-2-yn-1-yl]-1,3-benzothiazol-4-amine; formic acid] | – | < 750 | > 90 | < 750 | < 750 | 8000 to 10000 | – | – | – | – | – | < 10 |
| COc1cc2c(cc1NCC#Cc1cc3c(N[C@@H]4CCN(C)C[C@@H]4F)cccn3c1SC(F)(F)F)CNC2=O [Example 399] | < 10 | < 750 | > 90 | < 750 | < 750 | 5000 to 8000 | – | – | – | – | – | – |
| O=C(NC[C@@H]1COCCO1)c1ccc(NCC#Cc2cc3c(N[C@@H]4CCNC[C@@H]4F)cccn3c2SC(F)(F)F)cc1 [Example 484] | < 10 | – | – | – | – | – | < 750 | > 90 | < 750 | < 750 | 8000 to 10000 | – |
| CNC(=O)c1ccc(NCC#Cc2cc3c(N[C@@H]4CCNC[C@@H]4F)cccn3c2SC(F)(F)F)c(O)c1 [Example 455, 4-{[3-(8-{[(3S,4R)-3-fluoropiperidin-4-yl]amino}-3-[(trifluoromethyl)sulfanyl]indolizin-2-yl)prop-2-yn-1-yl]amino}-3-hydroxy-N-methylbenzamide] | < 10 | – | – | – | – | – | < 750 | 80 to 90 | < 750 | < 750 | 5000 to 8000 | – |
| CN1CC[C@@H](Nc2cccn3c(SC(F)(F)F)c(C#CCNc4ccc(C(=O)NC[C@H]5CCO5)cc4)cc23)[C@@H](F)C1 [Example 382] | < 10 | < 750 | > 90 | < 750 | < 750 | 8000 to 10000 | – | – | – | – | – | – |
| CNC(=O)c1ccc(OC)c(NCC#Cc2nc3c(NC4COC4)cccn3c2SC(F)(F)F)c1 [Example 240] | < 10 | < 750 | > 90 | < 750 | < 750 | 8000 to 10000 | – | – | – | – | – | – |
| CS(=O)(=O)CCNC(=O)c1ccc(NCC#Cc2cc3c(N[C@@H]4CCNC[C@@H]4F)cccn3c2SC(F)(F)F)cc1 [Example 438] | < 10 | < 750 | 80 to 90 | < 750 | < 750 | ≥ 10000 | – | – | – | – | – | – |
| O=C(NC[C@H]1CCO1)c1ccc(NCC#Cc2cc3c(N[C@@H]4CCNC[C@@H]4F)cccn3c2SC(F)(F)F)cc1 [Example 365] | < 10 | < 750 | 80 to 90 | < 750 | < 750 | < 5000 | – | – | – | – | – | – |
| CNC(=O)c1ccc(NCC#Cc2cc3c(N[C@@H]4CCN(C)C[C@@H]4F)nccn3c2SC(F)(F)F)c(F)c1 [Example 302] | < 10 | < 750 | > 90 | < 750 | < 750 | ≥ 10000 | – | – | – | – | – | – |
| COc1nc(P(C)(C)=O)ncc1NCC#Cc1cc2c(N[C@@H]3CCN(C)C[C@@H]3F)cccn2c1SC(F)(F)F [Example 445, 2-(3-{[2-(dimethylphosphoryl)-4-methoxypyrimidin-5-yl]amino}prop-1-yn-1-yl)-N-[(3S,4R)-3-fluoro-1-methylpiperidin-4-yl]-3-[(trifluoromethyl)sulfanyl]indolizin-8-amine] | < 10 | < 750 | > 90 | < 750 | < 750 | ≥ 10000 | – | – | – | – | – | – |
| CNC(=O)c1ccc(C(=O)NC)c(NCC#Cc2cc3c(N[C@@H]4CCN(C)C[C@@H]4F)cccn3c2SC(F)(F)F)c1 [Example 508] | < 10 | – | – | – | – | – | < 750 | > 90 | < 750 | < 750 | 8000 to 10000 | – |
| CN1CC[C@@H](Nc2cccn3c(SC(F)(F)F)c(C#CCNc4cc(C(=O)NCC5(O)CC5)ccc4OC4COC4)cc23)[C@@H](F)C1 [Example 409] | < 10 | < 750 | > 90 | < 750 | < 750 | ≥ 10000 | – | – | – | – | – | – |
| CNS(=O)(=O)c1ccc(OC)c(NCC#Cc2cc3c(N[C@@H]4CCN(C)C[C@@H]4F)nccn3c2SC(F)F)c1 [Example 334] | 10 to 100 | > 3000 | 80 to 90 | > 3000 | 1500 to 3000 | ≥ 10000 | – | – | – | – | – | – |
| O=C(NCC1COC1)c1ccc(NCC#Cc2cc3c(N[C@@H]4CCNC[C@@H]4F)cccn3c2SC(F)(F)F)cc1 [Example 364] | < 10 | < 750 | 70 to 80 | < 750 | < 750 | < 5000 | – | – | – | – | – | – |
| COc1cc(C(=O)NC[C@H](O)CO)ccc1NCC#Cc1cc2c(N[C@@H]3CCN(C)C[C@@H]3F)cccn2c1SC(F)(F)F [Example 422] | < 10 | < 750 | > 90 | < 750 | < 750 | ≥ 10000 | – | – | – | – | – | – |
| CNC(=O)c1cnc(OC)c(NCC#Cc2cc3c(N[C@@H]4CN(C)C[C@@H]4F)nccn3c2SC(F)(F)F)c1 [Example 330] | < 10 | < 750 | > 90 | < 750 | < 750 | ≥ 10000 | – | – | – | – | – | – |
| CNC(=O)c1ccc(NCC#Cc2cc3c(N[C@@H]4CCNC[C@@H]4F)nccn3c2SC(F)(F)F)cc1 [Example 298] | – | < 750 | > 90 | < 750 | < 750 | ≥ 10000 | – | – | – | – | – | < 10 |
| CN1CC[C@@H](Nc2cccn3c(SC(F)(F)F)c(C#CCNc4ccc(C(=O)NC[C@@H]5COCCO5)cc4)cc23)[C@@H](F)C1 [Example 441] | < 10 | < 750 | > 90 | < 750 | < 750 | ≥ 10000 | – | – | – | – | – | – |
| O=C(N[C@H]1C[C@H](O)C1)c1ccc(NCC#Cc2cc3c(N[C@@H]4CCNC[C@@H]4F)cccn3c2SC(F)(F)F)cc1 [Example 373] | < 10 | < 750 | 80 to 90 | < 750 | < 750 | ≥ 10000 | – | – | – | – | – | – |
